What was measured:
A 172 = assay: cells; type: functional, cell-based, Homo sapiens; conditions: Homo sapiens, A 172;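 also: growth inhibition of A172 cells, measured with a cell viability readout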
Description: SANGER: Inhibition of human A172 cell growth in a cell viability assay.

IGROV-1 = assay: cells; type: functional, cell-based, Homo sapiens; conditions: Homo sapiens, IGROV-1;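 also: reduction of IGROV-1 cell growth, read out with a viability assay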
Description: SANGER: Inhibition of human IGROV-1 cell growth in a cell viability assay.

HLE = assay: cells; type: functional, cell-based, Homo sapiens; conditions: Homo sapiens, HLE;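 also: growth inhibition of human HLE cells, read out by a cell viability assay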
Description: SANGER: Inhibition of human HLE cell growth in a cell viability assay.

SW1783 = assay: cells; type: functional, cell-based, Homo sapiens; conditions: Homo sapiens, SW1783
Description: SANGER: Inhibition of human SW1783 cell growth in a cell viability assay.

SNU-423 = assay: cells; type: functional, cell-based, Homo sapiens; conditions: Homo sapiens, SNU-423
Description: SANGER: Inhibition of human SNU-423 cell growth in a cell viability assay.

DMS-153 = assay: cells; type: functional, cell-based, Homo sapiens; conditions: Homo sapiens, DMS-153
Description: SANGER: Inhibition of human DMS-153 cell growth in a cell viability assay.

Hs-578T = assay: cells; type: functional, cell-based, Homo sapiens; conditions: Homo sapiens, Hs-578T
Description: SANGER: Inhibition of human Hs-578-T cell growth in a cell viability assay.

ME-180 = assay: cells; type: functional, cell-based, Homo sapiens; conditions: Homo sapiens, ME-180;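 also: cell viability assay measuring growth inhibition of ME-180 cells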
Description: SANGER: Inhibition of human ME-180 cell growth in a cell viability assay.

Detroit 562 = assay: cells; type: functional, cell-based, Homo sapiens; conditions: Homo sapiens, Detroit 562;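 also: growth inhibition of human Detroit 562 cells, read out by a cell viability assay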
Description: SANGER: Inhibition of human Detroit562 cell growth in a cell viability assay.

KYSE-270 = assay: cells; type: functional, cell-based, Homo sapiens; conditions: Homo sapiens, KYSE-270;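 also: cell growth inhibition measured with a viability assay in the human KYSE-270 line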
Description: SANGER: Inhibition of human KYSE-270 cell growth in a cell viability assay.

M14 = assay: cells; type: functional, cell-based, Homo sapiens; conditions: Homo sapiens, M14;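 also: growth inhibition of M14 cells, read out with a cell viability assay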
Description: SANGER: Inhibition of human M14 cell growth in a cell viability assay.

SN12C = assay: cells; type: functional, cell-based, Homo sapiens; conditions: Homo sapiens, SN12C;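 also: growth inhibition of human SN12C cells, measured by a cell viability assay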
Description: SANGER: Inhibition of human SN12C cell growth in a cell viability assay.

NCI-H28 = assay: cells; type: functional, cell-based, Homo sapiens; conditions: Homo sapiens, NCI-H28;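 also: growth inhibition of human NCI-H28 cells, read out as cell viability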
Description: SANGER: Inhibition of human NCI-H28 cell growth in a cell viability assay.

HCC1395 = assay: cells; type: functional, cell-based, Homo sapiens; conditions: Homo sapiens, HCC1395;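 also: growth inhibition of HCC1395 cells, read out by a cell viability assay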
Description: SANGER: Inhibition of human HCC1395 cell growth in a cell viability assay.

HSC-4 = assay: cells; type: functional, cell-based, Homo sapiens; conditions: Homo sapiens, HSC-4;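 also: growth inhibition of human HSC-4 cells, read out with a cell viability assay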
Description: SANGER: Inhibition of human HSC-4 cell growth in a cell viability assay.

NCI-H2081 = assay: cells; type: functional, cell-based, Homo sapiens; conditions: Homo sapiens, NCI-H2081;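 also: growth inhibition of human NCI-H2081 cells, read out with a cell viability assay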
Description: SANGER: Inhibition of human NCI-H2081 cell growth in a cell viability assay.

GAMG = assay: cells; type: functional, cell-based, Homo sapiens; conditions: Homo sapiens, GAMG;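 also: cell growth inhibition measured by a viability assay in the GAMG human cell line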
Description: SANGER: Inhibition of human GAMG cell growth in a cell viability assay.

NCI-H2052 = assay: cells; type: functional, cell-based, Homo sapiens; conditions: Homo sapiens, NCI-H2052;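 also: growth inhibition of NCI-H2052 cells, read out with a cell viability assay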
Description: SANGER: Inhibition of human NCI-H2052 cell growth in a cell viability assay.

NCI-H2171 = assay: cells; type: functional, cell-based, Homo sapiens; conditions: Homo sapiens, NCI-H2171;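 also: growth inhibition of human NCI-H2171 cells, read out by a cell viability assay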
Description: SANGER: Inhibition of human NCI-H2171 cell growth in a cell viability assay.

MRK-nu-1 = assay: cells; type: functional, cell-based, Homo sapiens; conditions: Homo sapiens, MRK-nu-1;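 also: cell viability assay measuring growth suppression of human MRK-nu-1 cells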
Description: SANGER: Inhibition of human MRK-nu-1 cell growth in a cell viability assay.

MDA-MB-175-VII = assay: cells; type: functional, cell-based, Homo sapiens; conditions: Homo sapiens, MDA-MB-175-VII
EFO-21 = assay: cells; type: functional, cell-based, Homo sapiens; conditions: Homo sapiens, EFO-21;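 also: growth inhibition of EFO-21 cells measured with a viability assay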
Description: SANGER: Inhibition of human EFO-21 cell growth in a cell viability assay.

LCLC-103H cell line = assay: cells; type: functional, cell-based, Homo sapiens; conditions: Homo sapiens, LCLC-103H
Description: SANGER: Inhibition of human LCLC-103H cell growth in a cell viability assay.

BFTC-909 = assay: cells; type: functional, cell-based, Homo sapiens; conditions: Homo sapiens, BFTC-909
Description: SANGER: Inhibition of human BFTC-909 cell growth in a cell viability assay.

KYSE-520 cell line = assay: cells; type: functional, cell-based, Homo sapiens; conditions: Homo sapiens, KYSE-520;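 also: growth inhibition of human KYSE-520 cells, read out with a viability assay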
Description: SANGER: Inhibition of human KYSE-520 cell growth in a cell viability assay.

NCI-H1693 = assay: cells; type: functional, cell-based, Homo sapiens; conditions: Homo sapiens, NCI-H1693;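 also: growth inhibition of the human cell line, read out with a cell viability assay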
Description: SANGER: Inhibition of human NCI-H1693 cell growth in a cell viability assay.

BOKU = assay: cells; type: functional, cell-based, Homo sapiens; conditions: Homo sapiens, BOKU;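 also: growth inhibition of the human BOKU cell line, read out by a cell viability assay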
Description: SANGER: Inhibition of human BOKU cell growth in a cell viability assay.

SW1990 = assay: cells; type: functional, cell-based, Homo sapiens; conditions: Homo sapiens, SW1990
Description: SANGER: Inhibition of human SW1990 cell growth in a cell viability assay.

NCI-H2347 = assay: cells; type: functional, cell-based, Homo sapiens; conditions: Homo sapiens, NCI-H2347;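 also: growth inhibition of the cell line, read out with a cell viability assay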
Description: SANGER: Inhibition of human NCI-H2347 cell growth in a cell viability assay.

Huh-7 = assay: cells; type: functional, cell-based, Homo sapiens; conditions: Homo sapiens, Huh-7;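 also: HuH-7 cell growth inhibition, read out with a cell viability assay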
Description: SANGER: Inhibition of human HuH-7 cell growth in a cell viability assay.

HSC-3 = assay: cells; type: functional, cell-based, Homo sapiens; conditions: Homo sapiens, HSC-3
Description: SANGER: Inhibition of human HSC-3 cell growth in a cell viability assay.

NCI-H2087 = assay: cells; type: functional, cell-based, Homo sapiens; conditions: Homo sapiens, NCI-H2087;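 also: growth inhibition determined with a cell viability readout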
Description: SANGER: Inhibition of human NCI-H2087 cell growth in a cell viability assay.

639-V = assay: cells; type: functional, cell-based, Homo sapiens; conditions: Homo sapiens, 639-V;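 also: growth inhibition of 639-V cells, read out with a cell viability assay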
Description: SANGER: Inhibition of human 639-V cell growth in a cell viability assay.

C-33-A = assay: cells; type: functional, cell-based, Homo sapiens; conditions: Homo sapiens, C-33-A;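 also: cell viability assay measuring growth inhibition of C-33-A cells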
Description: SANGER: Inhibition of human C-33-A cell growth in a cell viability assay.

NCI-H727 = assay: cells; type: functional, cell-based, Homo sapiens; conditions: Homo sapiens, NCI-H727;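 also: growth inhibition of human NCI-H727 cells, read out with a cell viability assay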
Description: SANGER: Inhibition of human NCI-H727 cell growth in a cell viability assay.

CHP-126 = assay: cells; type: functional, cell-based, Homo sapiens; conditions: Homo sapiens, CHP-126
Description: SANGER: Inhibition of human CHP-126 cell growth in a cell viability assay.

OPM-2 = assay: cells; type: functional, cell-based, Homo sapiens; conditions: Homo sapiens, OPM-2;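 also: growth of OPM-2 cells measured with a viability assay, IC50 for suppression of proliferation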
Description: SANGER: Inhibition of human OPM-2 cell growth in a cell viability assay.

RCM-1 = assay: cells; type: functional, cell-based, Homo sapiens; conditions: Homo sapiens, RCM-1;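 also: growth inhibition of the RCM-1 line, determined with a cell viability readout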
Description: SANGER: Inhibition of human RCM-1 cell growth in a cell viability assay.

HPAF-II = assay: cells; type: functional, cell-based, Homo sapiens; conditions: Homo sapiens, HPAF-II;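 also: growth inhibition of HPAF-II cells, read out with a cell viability assay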
Description: SANGER: Inhibition of human HPAF-II cell growth in a cell viability assay.

EFM-19 = assay: cells; type: functional, cell-based, Homo sapiens; conditions: Homo sapiens, EFM-19;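 also: growth inhibition of human EFM-19 cells, measured in a cell viability assay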
Description: SANGER: Inhibition of human EFM-19 cell growth in a cell viability assay.

NCI-H748 = assay: cells; type: functional, cell-based, Homo sapiens; conditions: Homo sapiens, NCI-H748;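 also: growth inhibition of NCI-H748 cells, measured by a cell viability assay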
Description: SANGER: Inhibition of human NCI-H748 cell growth in a cell viability assay.

786-0 = assay: cells; type: functional, cell-based, Homo sapiens; conditions: Homo sapiens
Description: SANGER: Inhibition of human 786-0 cell growth in a cell viability assay.

SU-DHL-1 = assay: SANGER: Inhibition of human SU-DHL-1 cell growth in a cell viability assay.; type: functional, cell-based; conditions: Homo sapiens, SU-DHL-1
8305C = assay: cells; type: functional, cell-based, Homo sapiens; conditions: Homo sapiens, 8305C
Description: SANGER: Inhibition of human 8305C cell growth in a cell viability assay.

Measured: IC50

CCC/C=C/C=C/C(=O)O[C@H]1/C(=C/C(=O)OC)C[C@H]2C[C@H]([C@@H](C)O)OC(=O)C[C@H](O)C[C@@H]3C[C@H](OC(C)=O)C(C)(C)[C@](O)(C[C@@H]4C/C(=C/C(=O)OC)C[C@H](/C=C/C(C)(C)[C@]1(O)O2)O4)O3 [BRYOSTATIN 1]
> 8 nM: all assays above

Source: ChEMBL document CHEMBL1201861, “Genomics of Drug Sensitity in Cancer screening data, Wellcome Trust Sanger Institute”
